Assay results reported in patent US20230416168A1 (EUROCHEM ANTWERPEN, priority 2020, published 2023).
Like-named read-outs stand apart in the source and are kept apart here.

Tests used:
[1] = tested on: Nitrosomonas europaea; test: Nitrification inhibition assay with Nitrosomonas europaea (nitrite level after 24 h); type: cell-based; settings: for IC50 / activity at 100 µM / activity at 50 µM: Nitrosomonas europaea; for activity at 100 µM / activity at 50 µM: 24 h, read-out: Nitrification (%) at tested concentration (0 = maximum activity); for activity at 50 µM: tested concentration 50 μM
Experimental: (§1) The compounds of formula (I) and (II) and (III)/(IV) were tested for their nitrification inhibition effect in two screens, using assays with the nitrifying bacteria N. europaea and N. multiformis. In practice, ammonium and candidate nitrification inhibitors (at 100 μM) were added to a dense bacterial culture in multiwell culture plates and after 24 h of incubation, the nitrite level was measured. To normalize for differences between batches of cultures and multiwell culture plates, for each well a relative nitrification was calculated that was normalized towards both the negative and positive controls (see “Material and Methods” below for full details).
(§2) Nitrite (NO2−) was measured using the Griess reagent (Product number: G4410, Griess reagent (modified), Sigma-Aldrich). Equal volumes of the sample or a diluted sample and the Griess reagent were mixed a transparent flat bottom multi-well plate and incubated in the dark at room temperature for 10 minutes. Absorbance values at 540 nm were measured spectrophotometrically (EnVision, Perkin Elmer®) and used to calculate the [NO2−] by use of a standard curve.
To prepare a high-throughput nitrification inhibition assay using N. europaea, late-log phase cultures were subcultivated two days before the assay. Just before the assay, the cultures were 5 times overconcentrated with fresh growth medium after centrifugation (4000 rpm, 15 min, 5° C.) in 50 mL centrifuge tubes (Cat. No. 430829, CentriStar™ Conical Centrifuge Tubes, Corning®). Per batch, all the cultures were pooled in one sterile Schott bottle and subsequently dispensed into 384-well plates (Cat. No. 781086, CELL-STAR® plate, Greiner Bio-One; 50 μl/well) by use of a dispenser (Multidrop™ Combi Reagent Dispenser, Thermo Scientific™) that was first flushed with growth medium. Specifically for the high-throughput screen for new nitrification inhibitors, 0.5 μl of 99.99% DMSO (negative control—final concentration 1%) was added to the outer two columns on the left side of the plate and 0.5 μl of 10 mM DMP (3,4-dimethylpyrazole, positive control—final concentration 100 μM) was added to the outer two columns on the right side manually. Finally, 0.5 μl of candidate nitrification inhibitors (5 mM stock solutions in 99.99% DMSO—final concentration 50 μM) were added to the central wells using a pin tool on a Tecan robot (Freedom EVO®, Tecan). In between additions, the pins were washed in sequence with 99.5% DMSO, MilliQ water and 100% ethanol and air-dried. All plates were separately wrapped in Parafilm. Stacks of 4 plates were put on top of a 96-well plate filled with 100 μl MilliQ per well, covered with aluminum foil and shaken at 150 rpm at 28° C. 24 h later, NO2− production was assessed. For this, the samples were first 200 times diluted by pipetting 1.5 μl of samples into 300 μl of fresh growth medium in intermediate plates (Cat. No. 353077, Falcon® 96-well Clear Round Bottom Microplate, Corning®), to then mix 15 μl of the diluted samples with 15 μl Griess reagent in the wells of a transparent, flat bottom 384-well plate (Cat. No. X^7001, Low Profile Microplate, Molecular Devices) that was measured spectrophotometrically at 540 nm (EnVision, Perkin Elmer®).
(§3) To assess the efficacy of the compounds (in terms of nitrification inhibition) and to enable comparison between plates and batches of cultures, we calculated the relative nitrification. More in detail, all nitrite results were normalized towards both a negative control, containing no compound, and a positive control, containing the benchmark (100 μM DMP), using Equation 1. This normalization was done per multi-well plate and each plate contained 32 positive and 32 negative controls.
IC50 values, that is the concentration that inhibits 50% of the nitrification, were calculated after fitting a logistic curve to 8-point dose response data, using doses between 2 and 100 μM with 1.75 fold steps. […]

[2] = tested on: Nitrosospira multiformis; test: Nitrification inhibition assay with Nitrosospira multiformis (nitrite level after 24 h); type: cell-based; settings: for IC50 / activity at 100 µM / activity at 50 µM: Nitrosospira multiformis; for activity at 100 µM / activity at 50 µM: 24 h, read-out: Nitrification at tested concentration (0 = maximum activity); for activity at 50 µM: tested concentration 50 μM
Experimental: as §1, §2
Cultures were first 5 times overconcentrated in fresh 181-medium by centrifugation (4000 rpm, 15 min, 5° C.) in 50 mL centrifuge tubes (Cat. No. 430829, CentriStar™ Conical Centrifuge Tubes, Corning®). Per batch, all the cultures were pooled in one sterile Schott bottle and subsequently dispensed in 384-well plates (Cat. No. 781086, CELLSTAR® plate, Greiner BioOne; 50 μl/well) by use of a dispenser (Multidrop™ Combi Reagent Dispenser, Thermo Scientific™) that was first flushed with 181-medium. 0.5 μl of 99.99% DMSO (negative control—final concentration […] was added to the outer two columns on the left side of the plate and 0.5 μl of 10 mM DMP (3,4-dimethylpyrazole, positive control—final concentration 100 μM) was added to the outer two columns on the right side manually. Finally, 0.5 μl of candidate nitrification inhibitors (5 mM stock solutions in 99.99% DMSO—final concentration 50 μM) were added to the central wells using a pin tool on a Tecan robot (Freedom EVO®, Tecan). In between additions, the pins were washed in sequence with 99.5% DMSO, MilliQ water and 100% ethanol and air-dried. All plates were separately wrapped in Parafilm. Stacks of 4 plates were put on top of a 96-well plate filled with 100 μl MilliQ per well, covered with aluminum foil and shaken (±150 rpm) at 30° C. 24 h later, NO2− production was assessed. For this, the samples were first 100 times diluted by pipetting 3 μl of samples into 300 μl fresh growth medium in intermediate plates (Cat. No. 353077, Falcon® 96-well Clear Round Bottom Microplate, Corning®) to then mix 15 μl of the diluted samples with 15 μl Griess reagent in the wells of a transparent, flat bottom 384-well plate (Cat. No. X^7001, Low Profile Microplate, Molecular Devices) that was measured spectrophotometrically at 540 nm (EnVision, Perkin Elmer®).
as §3
IC50 values, that is the concentration that inhibits 50% of the nitrification, were calculated after fitting a logistic curve to 8-point dose response data, using doses between 2 and 100 μM with 1.75 fold steps. If a concentration of 2 μM already inhibited nitrification, the IC50 value could not be calculated. In that case, IC50 values represent the dose that gives inhibition closest to 50%.
The compounds of formula (I) and (II) were tested for their nitrification inhibition effect in two screens, using assays with the nitrifying bacteria N. europaea and N. multiformis. […]

[3] = 8-point dose response, 2 to 100 μM, read-out: IC50
[4] = tested concentration 100 μM, normalized to DMSO (100%) and 100 μM DMP (0%)
[5] = normalized to DMSO (100%) and 100 μM DMP (0%)

Row | IC50 [1, 3] [µM] | IC50 [2, 3] [µM] | Compound | activity at 100 µM [1, 4] [%] | activity at 100 µM [2, 4] [%] | other results
1 | 68 | < 57 | S=C1NC(c2ccccc2)CO1 (centres unmarked) [Example 42] | 40 | 12 | 
2 | 43 | 3 | Cc1[nH]c(=S)sc1C [Example 35] | 12 | 0 | 
3 | < 100 | > 100 | CSc1nc(Br)cs1 [Example 32] | 46 | 75 | 
4 | 16 | 49 | S=c1[nH]c(C2CCCCC2)cs1 [Example 36] | 0 | 15 | 
5 | < 57 | < 20 | CC1CSC(SCc2cc(=O)n3ccsc3n2)=N1 (centres unmarked) [Example 14] | 0 | 0 | 
6 |  | < 20 | O=C(CSC1=NCCS1)NCc1cc(Br)cs1 [Example 11] |  | 0 | 
7 |  |  | Cc1cccc(CSC2=NCCS2)c1 [Example 17] |  |  | activity at 50 µM [1, 5]: 100%; activity at 50 µM [2, 5]: 36%
8 |  |  | COc1ccccc1Nc1nc(N)nc(CSC2=NCCS2)n1 [Example 20] |  |  | activity at 50 µM [1, 5]: 79%; activity at 50 µM [2, 5]: 42%
9 |  |  | CC1CNC(=S)S1 (centres unmarked) [Example 4] |  |  | IC50 [1]: < 2 µM; activity at 100 µM [1]: 0%; IC50 [2]: < 2 µM; activity at 100 µM [2]: 0%
10 | 38 | 2.1 | Cc1csc(=S)[nH]1 [Example 26, 4-methyl-1,3-thiazole-2-thiol] | 0 | 0 | Average nitrification [%] in Nitrosomonas europaea ([1]; 2 μM): 91%; Average nitrification [%] in Nitrosomonas europaea ([1]; 3.5 μM): 84%; Average nitrification [%] in Nitrosomonas europaea ([1]; 6 μM): 80%; Average nitrification [%] in Nitrosomonas europaea ([1]; 11 μM): 83%; Average nitrification [%] in Nitrosomonas europaea ([1]; 19 μM): 78%; Average nitrification [%] in Nitrosomonas europaea ([1]; 33 μM): 71%; Average nitrification [%] in Nitrosomonas europaea ([1]; 57 μM): 50%; Average nitrification [%] in Nitrosomonas europaea ([1]; 100 μM): 0%; Average nitrification [%] in Nitrosospira multiformis ([2]; 2 μM): 51%; Average nitrification [%] in Nitrosospira multiformis ([2]; 3.5 μM): 27%; Average nitrification [%] in Nitrosospira multiformis ([2]; 6 μM): 6%; Average nitrification [%] in Nitrosospira multiformis ([2]; 11 μM): 2%; Average nitrification [%] in Nitrosospira multiformis ([2]; 19 μM): 0%; Average nitrification [%] in Nitrosospira multiformis ([2]; 33 μM): 0%; Average nitrification [%] in Nitrosospira multiformis ([2]; 57 μM): 0%; Average nitrification [%] in Nitrosospira multiformis ([2]; 100 μM): 0%
11 |  |  | CCn1c(CSC2=NCCS2)nc2cc(F)ccc21 [Example 13] |  |  | activity at 50 µM [1, 5]: 73%; activity at 50 µM [2, 5]: 0%
12 | < 100 | < 100 | O=C1NCCS1 [Example 8] | 47 | 31 | 
13 | < 100 | < 20 | COc1cccc(-c2nc(CSC3=NCCS3)cs2)c1OC [Example 12] | 0 | 11 | 
14 | 28 | > 100 | CSc1nc(N)c(C#N)s1 [Example 29] | 0 | 61 | 
15 | > 100 | 44 | NCCCSc1nccs1 [Example 37] | 58 | 7 | 
16 | 7 | 20 | CC1(C)COC(=S)N1 [Example 43] | 0 | 0 | 
17 | 2 | 24 | C=CC1CNC(=S)O1 (centres unmarked) [Example 44] | 0 | 0 | 
18 |  |  | COc1cc(C(=O)CSC2=NCCS2)cc(OC)c1OC [Example 15] |  |  | activity at 50 µM [1, 5]: 78%; activity at 50 µM [2, 5]: 13%
19 | > 100 | 12 | S=c1[nH]cc(Cc2ccccc2)s1 [Example 28] | 65 | 0 | 
20 | > 100 | > 100 | Cc1csc(SC2CCCCC2)n1 [Example 38] | 92 | 53 | 
21 | 4 | 3 | S=c1[nH]cco1 [Example 40] | 0 | 0 | 
22 | 14 | 16 | Oc1csc(=S)[nH]1 [Example 31] | 12 | 11 | 
23 | 42 | 36 | S=c1[nH]c(-c2ccccc2)cs1 [Example 30] | 21 | 0 | 
24 | < 2 | < 2 | CCN(CN1CCSC1=S)C1CC1 [Example 2] | 0 | 0 | 
25 |  |  | CSC1=NCCO1 [Example 41] |  |  | IC50 [1]: > 100 µM; activity at 100 µM [1]: 88%; IC50 [2]: > 100 µM; activity at 100 µM [2]: 68%
26 | > 100 | > 100 | CCSc1nc(CC(=O)O)cs1 [Example 27] | 62 | 77 | 
27 | > 100 | > 100 | CSc1ncc(Br)s1 [Example 33] | 68 | 64 | 
28 | < 3.5 | < 2 | CC1CSC(=S)N1 (centres unmarked) [Example 3] | 0 | 0 | 
29 | 52 | 11 | S=c1[nH]c(C2CC2)cs1 [Example 34] | 0 | 0 | 
